These results are taken from ChEMBL document CHEMBL3124777, “Synthesis and biological evaluation of thiazoline derivatives as new antimicrobial and anticancer agents” (Eur J Med Chem, 2014).

Values after ≈ are worked out from the molar mass of the structure shown. Active and inactive are the calls of the source.

For the first assay, the system named is C6. The assay can be described thus: Cytotoxicity against rat C6 cells assessed as cell viability at 6 ug/ml after 24 hrs by MTT assay relative to control. Type of assay: functional. The following applies: C6, 24 h, read-out: Activity.
Take `Cc1ccc(-c2cs/c(=N/NC(=O)CSc3nnnn3-c3ccccc3)n2-c2ccccc2)cc1`: the viability at 6 µg/mL was 66.8%.
Take `Cc1ccc(-c2cs/c(=N/NC(=O)CSc3nnc(C)s3)n2-c2ccccc2)cc1`: the viability at 6 µg/mL was 65.9%.

In a further assay the test system is Aspergillus ochraceus. The assay can be described thus: Antimicrobial activity against Aspergillus ochraceus NRRL 3174 after 48 to 72 hrs by microbroth dilution method. Type of assay: functional.
Details: not given
(In broth dilution the organism is exposed to a series of concentrations in liquid medium.)
By MIC is commonly meant the smallest concentration in the dilution series that meets the test's criterion for growth inhibition. `Cc1ccc(-c2cs/c(=N/NC(=O)CSc3nnnn3-c3ccccc3)n2-c2ccccc2)cc1` returned an MIC of 250 µg/mL (≈ 500 µM).
The same measure, in the same setting: the value for `Cc1ccc(-c2cs/c(=N/NC(=O)CSc3nnc(C)s3)n2-c2ccccc2)cc1` was 250 µg/mL (≈ 551 µM).

A further assay deals with Pseudomonas aeruginosa. The assay can be described thus: Antimicrobial activity against Pseudomonas aeruginosa […] after 18 to 24 hrs by microbroth dilution method.
Details: not given
Type of assay: functional.
Compound `Cc1ccc(-c2cs/c(=N/NC(=O)CSc3nnnn3-c3ccccc3)n2-c2ccccc2)cc1` returned an MIC of 250 µg/mL (≈ 500 µM).
Same read-out and setting: the value for `Cc1ccc(-c2cs/c(=N/NC(=O)CSc3nnc(C)s3)n2-c2ccccc2)cc1` was 250 µg/mL (≈ 551 µM).

The test system of another assay is C6. The assay can be described thus: Cytotoxicity against rat C6 cells assessed as cell viability at 12 ug/ml after 24 hrs by MTT assay relative to control. Type of assay: functional. The following applies: C6, 24 h, read-out: Activity. A general note: Formazan colour is commonly taken as a measure of viable cells.
Consider `Cc1ccc(-c2cs/c(=N/NC(=O)CSc3nnnn3-c3ccccc3)n2-c2ccccc2)cc1`, for which the viability at 12 µg/mL worked out at 55.1%.
On the same count and under the same terms, the value for `Cc1ccc(-c2cs/c(=N/NC(=O)CSc3nnc(C)s3)n2-c2ccccc2)cc1` was 58.3%.

For a further assay, the system named is Aspergillus parasiticus. The assay can be described thus: Antimicrobial activity against Aspergillus parasiticus NRRL 465 after 48 to 72 hrs by microbroth dilution method.
Details: not given
Type of assay: functional.
Regarding `Cc1ccc(-c2cs/c(=N/NC(=O)CSc3nnnn3-c3ccccc3)n2-c2ccccc2)cc1`, the MIC came out at 250 µg/mL (≈ 500 µM).
Same read-out and setting: the value for `Cc1ccc(-c2cs/c(=N/NC(=O)CSc3nnc(C)s3)n2-c2ccccc2)cc1` was 250 µg/mL (≈ 551 µM).

A further assay relates to Trichoderma harzianum. The assay can be described thus: Antimicrobial activity against Trichoderma harzianum NRRL 20565 after 48 to 72 hrs by microbroth dilution method. The class given is functional.
Details: not given
As to `Cc1ccc(-c2cs/c(=N/NC(=O)CSc3nnnn3-c3ccccc3)n2-c2ccccc2)cc1`, the MIC worked out at 125 µg/mL (≈ 250 µM).
Take `Cc1ccc(-c2cs/c(=N/NC(=O)CSc3nnc(C)s3)n2-c2ccccc2)cc1`: the minimum inhibitory concentration (MIC) is 250 µg/mL (≈ 551 µM).

A further assay concerns C6. The assay can be described thus: Cytotoxicity against rat C6 cells assessed as cell viability at 100 ug/ml after 24 hrs by MTT assay relative to control. The class given is functional. The following applies: C6, 24 h, read-out: Activity.
Consider `Cc1ccc(-c2cs/c(=N/NC(=O)CSc3nnnn3-c3ccccc3)n2-c2ccccc2)cc1`, for which the viability at 100 µg/mL was found to be 28.5%.
On the same count and under the same terms, the value for `Cc1ccc(-c2cs/c(=N/NC(=O)CSc3nnc(C)s3)n2-c2ccccc2)cc1` was 31.5%.

The test system of the next assay is C6. The assay can be described thus: Cytotoxicity against rat C6 cells assessed as cell viability at 200 ug/ml after 24 hrs by MTT assay relative to control. Type of assay: functional. The following applies: C6, 24 h, read-out: Activity.
As to `Cc1ccc(-c2cs/c(=N/NC(=O)CSc3nnnn3-c3ccccc3)n2-c2ccccc2)cc1`, the viability at 200 µg/mL was determined as 22.2%.
On the same count and under the same terms, the value for `Cc1ccc(-c2cs/c(=N/NC(=O)CSc3nnc(C)s3)n2-c2ccccc2)cc1` was 13.3%.

Another assay deals with C6. The assay can be described thus: Cytotoxicity against rat C6 cells after 24 hrs by MTT assay. Type of assay: functional, cell-based. The following applies: C6, 24 h.
Broadly, the IC50 is the concentration that inhibits the measured activity by half. Turning to `Cc1ccc(-c2cs/c(=N/NC(=O)CSc3nnnn3-c3ccccc3)n2-c2ccccc2)cc1`, inhibition was half-maximal at 14.7 µg/mL (≈ 29.4 µM) (IC50).
Same read-out and setting: the value for `Cc1ccc(-c2cs/c(=N/NC(=O)CSc3nnc(C)s3)n2-c2ccccc2)cc1` was 25.3 µg/mL (≈ 55.8 µM).

Another assay deals with Listeria monocytogenes. The assay can be described thus: Antimicrobial activity against Listeria monocytogenes ATCC 7644 after 18 to 24 hrs by microbroth dilution method. The class given is functional.
Details: not given
`Cc1ccc(-c2cs/c(=N/NC(=O)CSc3nnnn3-c3ccccc3)n2-c2ccccc2)cc1` displayed an MIC of 250 µg/mL (≈ 500 µM).
Still for that read-out and setting: the value for `Cc1ccc(-c2cs/c(=N/NC(=O)CSc3nnc(C)s3)n2-c2ccccc2)cc1` was 250 µg/mL (≈ 551 µM).

For a further assay, the system named is Fusarium solani. The assay can be described thus: Antimicrobial activity against Fusarium solani NRRL 13414 after 48 to 72 hrs by microbroth dilution method. Type of assay: functional.
Details: not given
Consider `Cc1ccc(-c2cs/c(=N/NC(=O)CSc3nnnn3-c3ccccc3)n2-c2ccccc2)cc1`, for which the minimum inhibitory concentration (MIC) worked out at 250 µg/mL (≈ 500 µM).
Still for that read-out and setting: the value for `Cc1ccc(-c2cs/c(=N/NC(=O)CSc3nnc(C)s3)n2-c2ccccc2)cc1` was 250 µg/mL (≈ 551 µM).

The test system of a further assay is C6. The assay can be described thus: Cytotoxicity against rat C6 cells assessed as cell viability at 50 ug/ml after 24 hrs by MTT assay relative to control. The class given is functional. The following applies: C6, 24 h, read-out: Activity.
Consider `Cc1ccc(-c2cs/c(=N/NC(=O)CSc3nnnn3-c3ccccc3)n2-c2ccccc2)cc1`, for which the viability at 50 µg/mL is 29.5%.
On the same count and under the same terms, the value for `Cc1ccc(-c2cs/c(=N/NC(=O)CSc3nnc(C)s3)n2-c2ccccc2)cc1` was 40.6%.

In another assay the test system is Penicillium chrysogenum. The assay can be described thus: Antimicrobial activity against Penicillium chrysogenum NRRL 1951 after 48 to 72 hrs by microbroth dilution method. The class given is functional.
Details: not given
`Cc1ccc(-c2cs/c(=N/NC(=O)CSc3nnnn3-c3ccccc3)n2-c2ccccc2)cc1` showed an MIC of 250 µg/mL (≈ 500 µM).
The same measure, in the same setting: the value for `Cc1ccc(-c2cs/c(=N/NC(=O)CSc3nnc(C)s3)n2-c2ccccc2)cc1` was 250 µg/mL (≈ 551 µM).

A further assay has as its system C6. The assay can be described thus: Inhibition of DNA synthesis in rat C6 cells assessed as BrdU incorporation after 24 hrs by ELISA. The class given is functional, cell-based.
Details: not given
On the technique in general: Incorporation of labelled thymidine or its analogues reports DNA synthesis.
With `Cc1ccc(-c2cs/c(=N/NC(=O)CSc3nnnn3-c3ccccc3)n2-c2ccccc2)cc1`, the inhibition entry is “Dose-dependent effect”.
Regarding `Cc1ccc(-c2cs/c(=N/NC(=O)CSc3nnc(C)s3)n2-c2ccccc2)cc1`, the inhibition entry was “Dose-dependent effect”.

In another assay the test system is Escherichia coli. The assay can be described thus: Antimicrobial activity against Escherichia coli ATCC 25922 after 18 to 24 hrs by microbroth dilution method. The class given is functional.
Details: not given
In turn, `Cc1ccc(-c2cs/c(=N/NC(=O)CSc3nnnn3-c3ccccc3)n2-c2ccccc2)cc1` yielded a minimum inhibitory concentration (MIC) of 250 µg/mL (≈ 500 µM).
The same measure, in the same setting: the value for `Cc1ccc(-c2cs/c(=N/NC(=O)CSc3nnc(C)s3)n2-c2ccccc2)cc1` was 250 µg/mL (≈ 551 µM).

The test system of a further assay is C6. The assay can be described thus: Cytotoxicity against rat C6 cells assessed as cell viability at 25 ug/ml after 24 hrs by MTT assay relative to control. Type of assay: functional. The following applies: C6, 24 h, read-out: Activity.
Regarding `Cc1ccc(-c2cs/c(=N/NC(=O)CSc3nnnn3-c3ccccc3)n2-c2ccccc2)cc1`, the viability at 25 µg/mL came out at 38.8%.
On to `Cc1ccc(-c2cs/c(=N/NC(=O)CSc3nnc(C)s3)n2-c2ccccc2)cc1`, for which the viability at 25 µg/mL was determined as 50.1%.

A further assay deals with Candida albicans. The assay can be described thus: Antimicrobial activity against Candida albicans ATCC 22019 after 18 to 24 hrs by microbroth dilution method.
Details: not given
The class given is functional.
With `Cc1ccc(-c2cs/c(=N/NC(=O)CSc3nnnn3-c3ccccc3)n2-c2ccccc2)cc1`, inhibition of growth (MIC) required 250 µg/mL (≈ 500 µM).
Take `Cc1ccc(-c2cs/c(=N/NC(=O)CSc3nnc(C)s3)n2-c2ccccc2)cc1`: inhibition of growth (MIC) required 250 µg/mL (≈ 551 µM).

The next assay has as its system Bacillus subtilis. The assay can be described thus: Antimicrobial activity against Bacillus subtilis NRS-744 after 18 to 24 hrs by microbroth dilution method. Type of assay: functional.
Details: not given
With `Cc1ccc(-c2cs/c(=N/NC(=O)CSc3nnnn3-c3ccccc3)n2-c2ccccc2)cc1`, it took 250 µg/mL (≈ 500 µM) to inhibit growth (MIC).
The same measure, in the same setting: the value for `Cc1ccc(-c2cs/c(=N/NC(=O)CSc3nnc(C)s3)n2-c2ccccc2)cc1` was 500 µg/mL (≈ 1100 µM).

The test system of a further assay is Fusarium verticillioides. The assay can be described thus: Antimicrobial activity against Fusarium moniliforme NRRL 1866 after 48 to 72 hrs by microbroth dilution method. The class given is functional.
Details: not given
In turn, `Cc1ccc(-c2cs/c(=N/NC(=O)CSc3nnnn3-c3ccccc3)n2-c2ccccc2)cc1` had an MIC of 250 µg/mL (≈ 500 µM).
In the case of `Cc1ccc(-c2cs/c(=N/NC(=O)CSc3nnc(C)s3)n2-c2ccccc2)cc1`, the MIC amounted to 250 µg/mL (≈ 551 µM).

The subject of another assay is C6. The assay can be described thus: Inhibition of DNA synthesis in rat C6 cells assessed as BrdU incorporation at IC50 after 24 hrs by ELISA.
Details: not given
The class given is functional, cell-based.
Take `Cc1ccc(-c2cs/c(=N/NC(=O)CSc3nnnn3-c3ccccc3)n2-c2ccccc2)cc1`: the inhibition entry is “Active”.
`Cc1ccc(-c2cs/c(=N/NC(=O)CSc3nnc(C)s3)n2-c2ccccc2)cc1`: the inhibition result is “Active”.

A further assay has as its system Staphylococcus aureus. The assay can be described thus: Antimicrobial activity against Staphylococcus aureus NRRL B-767 after 18 to 24 hrs by microbroth dilution method. The class given is functional.
Details: not given
On to `Cc1ccc(-c2cs/c(=N/NC(=O)CSc3nnnn3-c3ccccc3)n2-c2ccccc2)cc1`, for which the MIC was determined as 250 µg/mL (≈ 500 µM).
For `Cc1ccc(-c2cs/c(=N/NC(=O)CSc3nnc(C)s3)n2-c2ccccc2)cc1`, the MIC was found to be 500 µg/mL (≈ 1100 µM).

The subject of another assay is NIH3T3. The assay can be described thus: Cytotoxicity against mouse NIH/3T3 cells after 24 hrs by MTT assay. The class given is cell-based. The following applies: NIH3T3, 24 h.
Regarding `Cc1ccc(-c2cs/c(=N/NC(=O)CSc3nnnn3-c3ccccc3)n2-c2ccccc2)cc1`, the half-inhibitory concentration (IC50) is > 500 µg/mL.
Still for that read-out and setting: the value for `Cc1ccc(-c2cs/c(=N/NC(=O)CSc3nnc(C)s3)n2-c2ccccc2)cc1` was 373 µg/mL (≈ 823 µM).

For the next assay, the system named is Fusarium culmorum. The assay can be described thus: Antimicrobial activity against wild type Fusarium culmorum after 48 to 72 hrs by microbroth dilution method. The class given is functional.
Details: not given
With `Cc1ccc(-c2cs/c(=N/NC(=O)CSc3nnnn3-c3ccccc3)n2-c2ccccc2)cc1`, inhibition of growth (MIC) required 125 µg/mL (≈ 250 µM).
As for `Cc1ccc(-c2cs/c(=N/NC(=O)CSc3nnc(C)s3)n2-c2ccccc2)cc1`, the MIC was 250 µg/mL (≈ 551 µM).

The test system of another assay is Micrococcus luteus. The assay can be described thus: Antimicrobial activity against Micrococcus luteus NRLL B-4375 after 18 to 24 hrs by microbroth dilution method.
Details: not given
Type of assay: functional.
Regarding `Cc1ccc(-c2cs/c(=N/NC(=O)CSc3nnnn3-c3ccccc3)n2-c2ccccc2)cc1`, it took 250 µg/mL (≈ 500 µM) to inhibit growth (MIC).
The same measure, in the same setting: the value for `Cc1ccc(-c2cs/c(=N/NC(=O)CSc3nnc(C)s3)n2-c2ccccc2)cc1` was 250 µg/mL (≈ 551 µM).
